Experimental data published in PubChem BioAssay AID720587 (Broad Institute, 2013).

The compounds below were run on A673 Ewing sarcoma viability, CellTiter-Glo ATP luminescence, 72 h (assay: EWS/Fli1-dependent A673 cell killing, confirmation, CellTiter-Glo luminescence, cherry-pick retest (AID 720587)).
With `C[C@H]1O[C@@H](O[C@H]2[C@@H](O)C[C@H](O[C@H]3[C@@H](O)C[C@H](O[C@H]4CC[C@@]5(C)[C@H](CC[C@@H]6[C@@H]5C[C@@H](O)[C@]5(C)[C@@H](C7=CC(=O)OC7)CC[C@]65O)C4)O[C@@H]3C)O[C@@H]2C)C[C@H](O)[C@@H]1O` the AC35 was 0.173 µM. `Cc1sc2nc(CN3CCC(C)CC3)nc(Cl)c2c1C` was tested, and the AC35 was 10.7 µM. In the case of `O=c1[nH]c(=O)n([C@H]2C[C@H](O)[C@@H](CO)O2)cc1C(F)(F)F`, the AC35 is reported as 4.17 µM. `Nc1nc2cc3c(cc2cc1C(=O)NCCc1c[nH]c2ccccc12)OCO3` showed an AC35 of 8.07 µM. `COc1ccc(NC(=S)N=Nc2c(O)[nH]c3ccccc23)cc1` showed an AC35 of 1.75 µM. With `CCCCc1c(Cc2ccccc2)ncn1CCc1ccccc1OC` the AC35 was 15 µM. In the case of `CCc1nc(N)nc(N)c1-c1ccc(Cl)cc1`, the AC35 is reported as 8.71 µM. For `O=C(NCc1cccnc1)C1Cc2c(-c3ccc(Cl)cc3)ccnc2O1` (centres undefined), the AC35 was 7.98 µM. Compound `COc1ccc(C2c3cc4c(cc3OC(NNC(N)=O)C2C)OCO4)cc1` (centres undefined) has an AC35 of 12.4 µM. With `COc1cc(/C=C/C(=O)/C=C(O)/C=C/c2ccc(O)c(OC)c2)ccc1O` the AC35 was 2.13 µM. `CCOc1cc(/C=N/Nc2cc(C)nc(-n3nc(C)cc3C)n2)ccc1O` was tested, and the AC35 was 1.77 µM. `COC(=O)C[C@@H]1CC[C@@H]2[C@H](COc3ccc(NC(=O)Nc4cccc(Cl)c4)cc3C(=O)N2C)O1` gave an AC35 of 12.5 µM. `C[C@@H]1CN([C@H](C)CO)C(=O)c2cc(NC(=O)CCCCCC(=O)Nc3ccccc3N)ccc2O[C@@H]1CN(C)Cc1ccc(Cl)c(Cl)c1` showed an AC35 of 9.95 µM. `COc1ccc(CC(N)c2csc(NC(=O)Nc3cccc(C(F)(F)F)c3)n2)cc1` (centres undefined) showed an AC35 of 6.74 µM. For `O=C1NC(=O)N(Cc2ccc(F)cc2)C(=O)/C1=C\C=C\c1ccco1`, the AC35 was 5.3 µM. In the case of `COC1C(C)OC(OC2CC(C)(O)Cc3cc4c(c(O)c32)C(=O)c2c(O)cc3c(c2C4=O)OC2OC3(C)C(O)C(N(C)C)C2O)C(OC)C1(C)OC` (centres undefined), the AC35 is reported as 0.0582 µM. For `CCN1/C(=C/C(C)=C/c2sc3ccccc3[n+]2CC)Sc2ccccc21`, the AC35 was 1.36 µM. `COC(=O)Cc1[nH]n(-c2nc3ccccc3s2)c(=O)c1C(C)=Nc1ccc(OC)cc1` was tested, and the AC35 was 19.2 µM. `Cc1nc(N)nc(N)c1/C=C/C(C)(C)c1ccc(Cl)cc1` showed an AC35 of less than 0.011 µM. In the case of `COC(=O)C[C@@H]1CC[C@@H]2[C@H](COc3ccc(NC(=O)c4ccc(F)cc4)cc3C(=O)N2C)O1`, the AC35 is reported as 23 µM. With `COc1ccc(/C=C2\SC(=S)N(CCCC(=O)NNC(=O)c3ccccc3O)C2=O)cc1` the AC35 was 16.8 µM. Work on `Cc1ccc(C(C)C)c(OCc2ccc(C(=O)N/N=C/c3ccc(O)cc3O)cc2)c1` yielded an AC35 of 0.296 µM. `COC(=O)C[C@@H]1CC[C@@H]2[C@@H](COc3ccc(NC(=O)Nc4ccccc4C)cc3C(=O)N2C)O1` gave an AC35 of 19.7 µM. Compound `Cc1c(N=Cc2cc(Br)cc(Br)c2O)cccc1C(=O)O` has an AC35 of 20 µM. For `OC[C@H]1O[C@@H](n2cnc3c(NCc4ccco4)ncnc32)[C@H](O)[C@@H]1O`, the AC35 was 3.68 µM. `C[C@@H]1O[C@@H](O[C@H]2C[C@@H](O)[C@]3(CO)[C@@H]4C(CC[C@]3(O)C2)[C@@]2(O)CC[C@H](C3COC(=O)C3)[C@@]2(C)C[C@H]4O)[C@H](O)[C@H](O)[C@H]1O` (some centres undefined) showed an AC35 of 2.3 µM. In the case of `CCOc1cc2[nH]c(=S)n(Cc3ccc(C(=O)NCCN(CC)CC)cc3)c(=O)c2cc1OCC`, the AC35 is reported as 12 µM. Compound `O=C(CCCN1C(=O)S/C(=C\c2ccccc2)C1=O)NNC(=O)c1ccccc1O` has an AC35 of 18.7 µM. `COC1C(O)C(C)OC(OC2C(Oc3cccc4c(O)c5c(=O)oc6ccc(C)c7c(=O)oc(c34)c5c67)OC(C)C(O)C2O)C1O` (centres undefined) gave an AC35 of 6.33 µM. For `C[C@]12CCC3C(CCC4=CC(O)CC[C@@]43/C=N/O)C1(O)CCC2C1=CC(=O)OC1` (some centres undefined), the AC35 was 0.569 µM. `O=C(O)c1ccc(N/N=C/c2ccc3c(c2)OCO3)cc1` showed an AC35 of 16.5 µM. With `CN1C/C(=C/c2ccsc2)C(=O)/C(=C/c2ccsc2)C1` the AC35 was 8.67 µM. `O=c1c2ccccc2nc(/C=C/c2cc(Br)ccc2O)n1CCCO` gave an AC35 of 9.12 µM. `COc1ccc(NC(=O)N2CCCCN3[C@@H](CO)[C@H](c4ccc(C5=CCCCC5)cc4)[C@@H]3C2)cc1` gave an AC35 of 10.3 µM. `Cc1nn(-c2ccc(F)cc2)c2nc(N)c(C#N)c(-c3ccc(O)c(O)c3)c12` showed an AC35 of 8.63 µM. For `C[C@H](CO)N1C[C@H](C)[C@H](CN(C)Cc2ccc(Oc3ccccc3)cc2)Oc2ccc(NC(=O)Cn3cnnn3)cc2CC1=O`, the AC35 was 8.16 µM. `O=C1NC(=O)N(Cc2ccco2)C(=O)/C1=C/C=C/c1ccco1` gave an AC35 of 5.61 µM. With `CN(C)c1ccc(N=Nc2nc3ccccc3n2C)cc1` the AC35 was 8.63 µM. `Cc1ccc(S(=O)(=O)N(C)C[C@@H]2Oc3cc(C#Cc4ccncc4)ccc3S(=O)(=O)N([C@@H](C)CO)C[C@H]2C)cc1` showed an AC35 of 21.1 µM. `O=C(NCc1ccc(F)cc1)N1[C@H]2CC[C@@H]1C=C(c1ccc(F)cc1OCc1ccccc1)C2` gave an AC35 of 1.89 µM. In the case of `CC(=O)ON=C1C=CC(=C(C#N)c2ccccc2)C=C1`, the AC35 is reported as 5.49 µM. `CCN(Cc1ccccc1)c1ccc(/C=N/N=C(N)N)cc1` gave an AC35 of 6.3 µM. In the case of `C[C@@H]1CN([C@@H](C)CO)C(=O)c2cccc(N(C)C)c2O[C@@H]1CN(C)Cc1ccc(C(=O)Nc2ccccc2N)cc1`, the AC35 is reported as 13.8 µM. Compound `C[C@@H]1CN([C@@H](C)CO)C(=O)Cc2cc(NS(=O)(=O)c3cccs3)ccc2O[C@H]1CN(C)Cc1ccc(Cl)c(Cl)c1` has an AC35 of 12.5 µM. `CCN1CCS/C1=C\C=C\C1=[N+](CC)CCS1` showed an AC35 of 16.1 µM. With `CCn1c(/C=N/NC(=O)c2ccc(OC)cc2)nc2ccccc21` the AC35 was 5.62 µM. `COc1ccc(S(=O)(=O)N2CCCc3nc(-c4ccc(F)cc4)ccc32)cc1` was tested, and the AC35 was 5.35 µM. For `C[C@@H]1CN([C@H](C)CO)S(=O)(=O)c2ccc(C#Cc3ccncc3)cc2O[C@@H]1CN(C)C(=O)Nc1ccc2c(c1)OCO2`, the AC35 was 19.4 µM. `CCCC[C@@H]1Cc2[nH][nH]c(=O)c2[C@H](c2ccc3ccccc3c2)O1` was tested, and the AC35 was 7.67 µM. In the case of `C[C@H]1CN([C@@H](C)CO)C(=O)Cc2cc(NC(=O)CCC(F)(F)F)ccc2O[C@H]1CN(C)Cc1ccc(C(=O)Nc2ccccc2N)cc1`, the AC35 is reported as 8.75 µM. `CCOc1cc(N2CCC(O)CC2)ccc1Nc1ncc2c(n1)N(C)c1ccccc1C(=O)N2C` was tested, and the AC35 was 21 µM. Work on `O=C1c2ccccc2C(=O)N1CCCCNc1ccccc1` yielded an AC35 of 10.8 µM. With `N=c1ccn2c(n1)O[C@H]1[C@H](O)[C@@H](CO)O[C@H]12` the AC35 was 0.74 µM. `CCCCCCCCNC(C)C(O)c1ccc(SC(C)C)cc1` (centres undefined) gave an AC35 of 5.92 µM. `Cc1cc(C)c2sc(NNC(=O)c3ccc(S(=O)(=O)N4CCc5ccccc5C4)cc3)nc2c1` was tested, and the AC35 was 1.19 µM. `C[C@H](CO)N1C[C@H](C)[C@H](CN(C)Cc2ccc(C(=O)Nc3ccccc3N)cc2)Oc2ccc(N(C)C)cc2CC1=O` showed an AC35 of 3.83 µM. For `O=C(Nc1ccc2c(c1)OCO2)N1C[C@@H]2N[C@H](C1)C2c1ccc(C=Cc2ccccc2)cc1` (some centres undefined), the AC35 was 4.6 µM. `Cc1ccc2c(c1)C(=O)N1[C@H]3c4cc(Br)ccc4OC[C@@H]3[C@H](c3ccccc3)[C@]1(C)C(=O)N2` showed an AC35 of 14.5 µM. For `Cc1ccc(/C=N/Nc2ccnc3cc(Cl)ccc23)c(C)c1`, the AC35 was 6.15 µM. `C[C@@H]1CN([C@@H](C)CO)C(=O)Cc2cc(NC(=O)C3CCCCC3)ccc2O[C@H]1CN(C)Cc1ccc(C(=O)Nc2ccccc2N)cc1` was tested, and the AC35 was 20.8 µM. `O=C(C[C@@H]1C[C@H]2c3cc(NS(=O)(=O)c4ccc(F)cc4)ccc3O[C@H]2[C@H](CO)O1)NCc1ccc(-c2ccccc2)cc1` showed an AC35 of 4.21 µM. For `CCc1ccc(S(=O)(=O)c2ccc(-n3nc(C)cc3N)cc2)cc1`, the AC35 was 17.8 µM. `CCCCCCN(C(=O)CCCCCN1C(=O)NC(c2ccc(Cl)cc2)C(C(=O)OCc2ccccc2)=C1C)C(C(=O)NCCCC)c1ccc(OCC(=O)OC)c(C(=O)OC)c1` (centres undefined) gave an AC35 of 10.8 µM. In the case of `CN1C(=O)c2cc(NC(=O)c3ccc(Cl)cc3)ccc2OC[C@@H]2O[C@@H](CC(=O)NCc3cccc(F)c3)CC[C@H]21`, the AC35 is reported as 5.42 µM. `COC(=O)C[C@H]1CC[C@@H]2[C@H](COc3ccc(NC(=O)Nc4cccc(Cl)c4)cc3C(=O)N2C)O1` was tested, and the AC35 was 14.1 µM. In the case of `COc1ccc(C2=NNC(=Nc3cc(S(=O)(=O)N(C)C)ccc3C)SC2)c(OC)c1`, the AC35 is reported as 20.5 µM. `Nc1sc(-c2ccccc2)cc1-c1n[nH]c(=S)n1C1CCCCC1` was tested, and the AC35 was 6.83 µM. Work on `CCCCC[C@H](C)N1C[C@H](COCc2ccccc2)Oc2cc(N3CC[C@@H](N(C)C)C3)ccc2S1(=O)=O` yielded an AC35 of 11.7 µM. `COc1cccc(O)c1CN1CCC(C(=O)Nc2ccc(-c3cccc(C)c3)cc2)CC1` was tested, and the AC35 was 11 µM. With `Nc1cc2c(cc1Br)[nH]c(=O)c1ccccc12` the AC35 was 16.6 µM. Work on `C[C@@H]1CN([C@H](C)CO)C(=O)CCCn2nncc2CO[C@H]1CN(C)Cc1ccc(Oc2ccccc2)cc1` yielded an AC35 of 21.1 µM. Work on `O=C(N/N=C/c1cnc(N2CCCCC2)s1)c1ccc(C(F)(F)F)cc1` yielded an AC35 of 13.8 µM. Work on `O=C(N/N=C/c1ccc[nH]1)c1cc(-c2ccc(Cl)cc2)nc2ccccc12` yielded an AC35 of 11.6 µM. Compound `CCCCCCCCCCCCCCCCCCNc1ccn(C2OC(COP(=O)(O)OCC3OC(n4cc(F)c(=O)[nH]c4=O)CC3O)C(O)C2O)c(=O)n1` (centres undefined) has an AC35 of 0.137 µM. For `COc1ccc(/C=C/C(=O)c2cc(F)ccc2OC(=O)c2ccccc2OC)cc1OC`, the AC35 was 4.54 µM. For `O=c1oc2cc(O)ccc2s1`, the AC35 was 12.5 µM. `C[C@H](CO)N1C[C@H](C)[C@@H](CN(C)Cc2ccc(C(F)(F)F)cc2)OCCCC[C@H](C)Oc2ccc(NS(=O)(=O)c3ccc(F)cc3)cc2C1=O` gave an AC35 of 13.4 µM. In the case of `C[C@@H]1O[C@@H](O[C@@H]2C=C3CCC4C(CC[C@]5(C)[C@@H](c6ccc(=O)oc6)CC[C@]45O)[C@@]3(C)CC2)[C@H](O)[C@H](O)[C@H]1O` (some centres undefined), the AC35 is reported as 0.0136 µM. In the case of `C(=NNc1ccc2ccccc2n1)c1ccccn1`, the AC35 is reported as 0.514 µM. For `CCNC(=O)c1cc2c(c(-c3cccc(-c4cccc(OC)c4)c3)n1)[C@H](CCO)N([S@@](=O)C(C)(C)C)C2`, the AC35 was 5.13 µM. In the case of `COC(=O)C[C@H]1CC[C@H]2[C@H](COc3ccc(NC(=O)Nc4cccc(Cl)c4)cc3C(=O)N2C)O1`, the AC35 is reported as 13.6 µM. For `C[C@]12CC[C@H]3[C@@H](CC[C@]4(O)C[C@@H](O)CC[C@]34C=O)[C@@]1(O)CC[C@@H]2C1=CC(=O)OC1`, the AC35 was 0.641 µM. With `N/C(=C\C(=O)c1cc(Cl)ccc1O)C(Cl)(Cl)Cl` the AC35 was 4 µM. `CC1(C)N=C(N)N=C(N)N1c1ccc(CCCCc2ccccc2)cc1` showed an AC35 of 0.65 µM. Work on `COC(=O)C1=C(C)N(Cc2ccccc2C(F)(F)F)C(=NCc2ccc(OC)cc2)NC1c1ccc(C(F)(F)F)cc1` (centres undefined) yielded an AC35 of 13.1 µM. For `O=C1NC(=O)N(c2ccccc2)C(=O)/C1=C\C=C\c1ccccc1`, the AC35 was 4.03 µM. Work on `CN1c2ccc(-c3ccc(C#N)cc3)cc2[C@H]2[C@H](CCN2S(=O)(=O)c2cccc(F)c2)[C@H]1CO` yielded an AC35 of 3.45 µM. Work on `CCN1C/C(=C/c2ccc(N3CCOCC3)cc2)C(=O)/C(=C/c2ccc(N3CCOCC3)cc2)C1` yielded an AC35 of 3.68 µM. With `Cc1cc2c(C(C)C)c(O)c(O)c(C=O)c2c(O)c1-c1c(C)cc2c(C(C)C)c(O)c(O)c(C=O)c2c1O` the AC35 was 6.09 µM.
